Results: patent publication US8106017B2, “Peptides for promoting hair growth and improving wrinkle and cosmetic compositions comprising the same” (Caregen Co., Ltd., priority 2005, dated 2012)

Columns and labels:
hyaluronic acid = assay: Hyaluronic acid level in HaCaT cell line (Hyaluronic acid ELISA kit); format: cell-based, human; conditions: HaCaT keratinocytes, 5 μmole; FIG. 10
Procedure: (§1) Furthermore, HaCaT cell line was treated with the acetyl-octapeptide of this invention (1 μg/ml) and the level of procollagen, one of indicators to show the improvement in skin wrinkle, was examined (FIG. 9). The level of procollagen was measured using Procollagen ELISA kit (Takara). For verifying effects on levels of hyaluronic acid, another indicator representing the improvement in skin wrinkle, HaCaT cell line was incubated with the acetyl-octapeptide of this invention (5 μmole) and the level of hyaluronic acid was measured using Hyaluronic acid ELISA kit (Echelon Biosciences Inc, USA) (FIG. 10).

procollagen = assay: Procollagen level in HaCaT cell line (Procollagen ELISA kit); format: cell-based, human; conditions: HaCaT keratinocytes, 1 μg/ml; FIG. 9
Procedure: as §1

C3H/HeN mice = assay: Hair-growth activities in mice with hair removed; format: in vivo; conditions: Formulation Example 5 applied on back for 25 days, initial hair growth effects, hair length and number, FIG. 12
Excerpt: The hairs of the back portions of C3H/HeN mice were completely removed using a hair cutter and a hair loss-inducing substance. One day later, Formulation Example 5 (cosmetic liquid) was applied onto the back portions for 25 days and then hair growth was observed.

HaCaT keratinocytes = assay: SRB colorimetric assay, growth of HaCaT keratinocytes; format: cell-based, human; conditions: 10 ng/ml or 1,000 ng/ml, 72 hr, serum-free medium; FIGS. 7 and 8
Procedure: To analyze effects of peptides of this invention on proliferation of keratinocytes, SRB (Sulforhodamine B) colorimetric assay was carried out using HaCaT kerationcyte according to Rizzino et al method (Rizzino, et al. Cancer Res., 48:4266 (1988)). HaCaT ketatinocytes (The Korean Cell Line Bank) were cultured in 250 ml-flasks containing EMEM (Eagle's minimal essential media, Gibco, U.S.A.) supplemented with […] (fetal bovine serum). HaCaT ketatinocytes cultured were treated with 0.25% trypsin solution to detach cells from the bottom of culture flasks and centrifuged to collect cell pellets. Cells were resuspended in EMEM not containing FBS, its aliquot (4×10^3) cells was added to each well of 96-well plates and cultured under 7% CO2 for 24 hr at 37° C. After 24-hr culture, the medium was changed with a fresh medium not containing serum and cells were incubated with thymosin β-4 or the acetyl-octapeptide (10 ng/ml or 1,000 ng/ml) dissolved in 10% DMSO for 72 hr under the same conditions as described above. After removing supernatants, cells were washed once using PBS (phosphate buffered saline) and incubated with SRB solution (Sigma-Aldrich). Cells were washed with PBS and observed under a microscope to find cell viability. In addition, absorbance at 590 nm was measured to analyze cell proliferation (FIG. 7). […]

BALB/MK karatinocytes = assay: [3H]-thymidine incorporation, measurement of biological activities; format: cell-based; conditions: FIG. 5; for biological activity compared with natural thymosin β-4: BALB/MK keratinocytes, thymidine incorporation
Procedure: The biological activities of the purified acetyl-octapetide of Example 2 were evaluated using BALB/MK karatinocytes according to Falco et al method to measure [^3H]-thymidine incorporation (Falco, et al. (1988) Oncogene., 2, 573). BALB/MK karatinocytes were cultured in 250 ml-flasks containing EMEM (Eagle's minimal essential media, Gibco, U.S.A.) supplemented with […] (fetal bovine serum). BALB/MK karatinocytes cultured were treated with 0.25% trypsin solution to detach cells from the bottom of culture flasks and centrifuged to collect cell pellets. Cells were resuspended in EMEM not containing FBS, its aliquot, 2×10^4 cells/0.3 ml medium was added to each well of 24-well plates and cultured under 7% CO2 for 24 hr at 37° C. 2 ng/ml of the acetyl octapeptide prepared in Example 2 was serially diluted by two-fold using EMEM containing 0.2 (w/v) % bovine serum albumin and 0.3 ml of the diluted peptide was added to each well, followed by additional culturing under 7% CO2 for 6 hr at 37° C. Afterwards, 0.5 μCi of [^3H]-thymidine (Amersham, TRK 686, 68 Ci/mmol) was added to each well and incubated overnight. After removing supernatants, cells were washed once using PBS (phosphate buffered saline) and incubated with 0.1 ml of 0.25% trypsin solution for 5 min at 37° C. to detach cells from the bottom of plates. 0.5 ml of EMEM containing 10% FBS was added to each well and cells were adhered to glass fiber filters using a cell harvester (12 well cell harvester, Millipore, U.S.A.). The filters were washed once with 1 ml of distilled water and once with 1 ml of ethanol, and kept to stand for 30 min at 60° C. for drying. The dried filters were added along with 2 ml of scintillation cocktail to scintillation vials and allowed to stand for 30 min at room temperature, after which radioactivity incorporated into cells was determined using a scintillation counter (Beckman, U.S.A) as shown in FIG. 5.

Ac-Lys-Leu-Lys-Lys-Thr-Glu-Thr-Gln-OH (Ac-KLKKTETQ-OH) [acetyl octapeptide]
level of hyaluronic acid in cells (hyaluronic acid): increased in a dose-dependent manner | level of procollagen in cells (procollagen): increased in a dose-dependent manner | increase of hair growth compared with control (C3H/HeN mice): 25-30% | cell viability / proliferation of HaCaT keratinocytes versus control (HaCaT keratinocytes): much higher cell viability than control | [3H]-thymidine incorporation into keratinocytes (BALB/MK karatinocytes; 2 ng/ml serially diluted two-fold): promotes thymidine incorporation into kerationcytes in a dose-dependent fashion | biological activity compared with natural thymosin β-4 (BALB/MK karatinocytes): high biological activities similar to intact Tβ-4F | biological activity compared with natural thymosin β-4 (BALB/MK karatinocytes; listed as present peptide): biological activities almost identical to natural-occurring Tβ4
